Assay results from patent publication US12435039B2, “Activators of caspase-8/c-FLIPL dimerization and their use in cancer therapy” (priority 2018, dated 2025).

Columns and labels:
[1] = test system: caspase-3/7 in Jurkat cells; assay: Caspase-3/7 activity assay (Caspase-Glo 3/7), Jurkat cells; assay type: cell-based, human
Description: Caspase-3/7 activity assay—Caspase activity was measured by adding 50 μL of the Caspase-Glo®3/7 solution to each well. The luminescence intensity was analyzed by a microplate reader Infinite M200pro (Tecan, Switzerland) according to manufacturer's instructions (Caspase-Glo® 3/7 Assay, Promega, Germany). The caspase activity of non-treated cells was taken as one relative unit (RU). Every condition was performed in duplicate.

[2] = test system: HeLa-CD95 cells; assay: Cell death detection using IncuCyte live cell imaging (Cytotox Red); assay type: cell-based; settings: 40 μM FLIPinBγ two hours
Description: Cell death detection using IncuCyte™ live cell imaging—HeLa-CD95 cells in a 96 well plate (5×10^3 cells/well) were pre-incubated with FLIPinBγ for 2 hours. […] To monitor cell death, cells were treated with IncuCyte™ Cytotox Red Reagent (1:4000) and Caspase-3/7 Green Apoptosis Assay Reagent (1:5000). The cells were imaged every hour by IncuCyte® ZOOM (Essen BioScience, Michigan) with a […] objective for a period of 6 hours. Every condition was performed in triplicate. Data were analyzed by the IncuCyte® ZOOM Software (2016A).

[3] = test system: caspase-3/7 in HeLa-CD95 cells; assay: Caspase-3/7 activity by IncuCyte live cell imaging (Caspase-3/7 Green); assay type: cell-based, human
[4] = test system: MV-4-11 cells; assay: Cell viability quantification by ATP assay (CellTiter-Glo), MV-4-11 cells; assay type: cell-based, human; settings: FLIPinBγ two hours, then CD95L 1000 ng/mL for 6 hours
Source text: (§1) Cell lines—Human cervical cancer HeLa-CD95 cells (Neumann et al., 2010) (CD95-overexpressing cells) and HeLa-CD95-FL cells (CD95/c-FLIPL-overexpressing cells) were maintained in DMEM/Ham's (Merck Millipore, Germany) supplemented with 10% heat-inactivated fetal calf serum, 1% Penicillin-Streptomycin and 0.0001% Puromycin in 5% CO2. Human acute myeloid leukemia MV-4-11 cells and T lymphoma Jurkat cells were maintained in RPMI 1640 (Thermo Fisher Scientific Inc., USA) supplemented with 10% heat-inactivated fetal calf serum and 1% Penicillin-Streptomycin in 5% CO2.
(§2) Cell viability quantification by ATP assay—50 μL of the CellTiter-Glo® solution was added to each well and measurements were performed according to manufacturer's instructions (CellTiter-Glo® Luminescent Cell Viability Assay, Promega, Germany). The luminescence intensity was analyzed by a microplate reader Infinite M200pro (Tecan, Switzerland). The viability of untreated cells was taken as one relative unit (RU). Every condition was performed in duplicate.

[5] = test system: caspase-8 at the DISC; assay: Caspase-8 activity assay on CD95 DISC-IPs (Caspase-Glo 8); assay type: biochemical, human; settings: CD95 DISC-IPs from HeLa-CD95 cells; 20 μM FLIPinBγ two hours, CD95L 60 ng/mL three hours
Description: CD95 DISC-IP—The CD95 DISC-IP (Immunoprecipitation) from 5×10^6 HeLa-CD95 cells were done as described before (Pietkiewicz et al., 2015). In addition, DISC-IPs were washed four times with PBS, which was followed by Western Blot analysis or caspase-8 activity assays.
Caspase-8 activity assay—Each of protein A beads samples with CD95 DISC-IPs were resuspended in 95 μL of CHAPS-Buffer (50 mM HEPES pH=7.2; 50 mM NaCl; 10 mM EDTA; 5% Glycerin; 10 mM DTT, 0.1% CHAPS) and transferred into a 96-well plate. Caspase-8 activity was measured according to manufacturer's instructions (Caspase-Glo® 8 Assay, Promega, Germany). Every condition was performed in duplicate. The luminescence intensity was analyzed by a microplate reader Infinite M200pro (Tecan, Switzerland).

[6] = test system: HeLa-CD95-FL cells (CD95/c-FLIPL-overexpressing); assay: Cell viability quantification by ATP assay (CellTiter-Glo), HeLa-CD95-FL cells; assay type: cell-based, human
Source text: as §1, §2

[7] = test system: c-FLIPL; assay: Western Blot time-dependent analysis of c-FLIPL levels; assay type: cell-based, human; settings: HeLa-CD95 cells; 20 μM FLIPinBγ up to 16 hours; first hours after administration
Description: (§3) Analysis of total cell lysates by Western Blot analysis—The Western Blot analysis of total cellular lysates was performed in accordance to the inventors' previous reports (Schmidt et al., 2015).

[8] = test system: procaspase-8, RIPK1 and PARP cleavage in HeLa-CD95 cells; assay: Western Blot analysis of total cellular lysates, CD95L-induced cleavage; assay type: cell-based, human; settings: 20 μM FLIPinBγ two hours, CD95L 60 ng/mL three hours
Description: as §3

[9] = test system: HeLa-CD95 cells; assay: Cell viability quantification by ATP assay (CellTiter-Glo), HeLa-CD95 cells; assay type: cell-based, human
Source text: as §1, §2

[10] = test system: Jurkat cells; assay: Cell viability quantification by ATP assay (CellTiter-Glo), Jurkat cells; assay type: cell-based, human
Source text: as §1, §2

[11] = test system: caspase activity in HeLa-CD95 cells; assay: Caspase activity in HeLa-CD95 cells (FLIPinB); assay type: cell-based, human; settings: FLIPinB with CD95L/TRAIL

O=C(NCCOC(=O)c1cccc(S(=O)(=O)NCc2cccnc2)c1)c1ccc(-c2ccncc2)cc1 [FLIPinBγ, 2-[[4-(4-pyridyl)benzoyl]amino]ethyl 3-(3-pyridylmethylsulfamoyl)benzoate]
caspase-3/7 activity, FLIPinBγ/CD95L co-treatment ([1]; 20 μM FLIPinBγ two hours, CD95L 60 ng/mL four hours): increase | caspase-3/7 activity, FLIPinBγ/TRAIL co-treatment ([1]; 20 μM FLIPinBγ two hours, TRAIL 100 ng/mL three hours): increase | CD95L-induced cell death (Cytotox Red live cell imaging) ([2]; CD95L 50 ng/mL, in the first hours): enhanced | TRAIL-induced cell death (Cytotox Red live cell imaging) ([2]; TRAIL 100 ng/mL, most prominent in the first hours): enhanced | caspase-3/7 activity in single cells, FLIPinBγ/TRAIL co-administration [3]: increase | caspase-3/7 activity in single cells, FLIPinBγ/CD95L co-administration ([3]; 40 μM FLIPinBγ two hours, CD95L 50 ng/mL): increase | CD95L-induced loss of cell viability [4]: efficiently promoted a loss of cell viability in a dose- and time-dependent manner | caspase-8 activity at the DISC [5]: increased | relative efficiency across cell lines ([6]; HeLa-CD95-FL cells overexpressing c-FLIPL): most efficient | CD95L-induced loss of cell viability ([6]; HeLa-CD95-FL cells, FLIPinBγ two hours, then CD95L 238 ng/mL for 6 hours): efficiently promoted a loss of cell viability in a dose- and time-dependent manner | influence on c-FLIPL expression [7]: no influence | CD95L-induced RIPK1 cleavage [8]: slight increase | CD95L-induced cleavage of PARP [8]: increases | CD95L-induced cleavage of procaspase-8 to p18 [8]: increases | CD95L-induced loss of cell viability ([9]; FLIPinBγ two hours, then CD95L 60 ng/mL for 22 hours): efficiently promoted a loss of cell viability in a dose- and time-dependent manner | CD95L-induced loss of cell viability ([10]; FLIPinBγ two hours, then CD95L 60 ng/mL for 6 hours): efficiently promoted a loss of cell viability in a dose- and time-dependent manner

O=C(NCCOC(=O)c1cccc(S(=O)(=O)NCc2ccccc2)c1)c1ccc(-c2ccccc2)cc1 [FLIPinB, 2-[(4-phenylbenozyl)amino]ethyl 3-(benzylsulfamoyl)benzoate]
caspase activity ([1]; FLIPinB with CD95L/TRAIL): increased | caspase activity [11]: increased | resistance of HeLa-CD95-FL cells to CD95L ([6]; HeLa-CD95-FL cells, FLIPinB plus CD95L): allowed to overcome the resistance | CD95L-induced loss of cell viability ([9]; FLIPinB plus CD95L): enhanced | TRAIL-induced loss of cell viability ([9]; FLIPinB plus TRAIL): enhanced | initial experimental screening of FLIPins: viability upon FLIPin/CD95L vs CD95L-only [10]: showed the best properties in the initial selection | CD95L-induced loss of cell viability ([10]; FLIPinB plus CD95L vs CD95L only): enhanced | TRAIL-induced loss of cell viability ([10]; FLIPinB plus TRAIL): enhanced
